The values that follow come from US11007128B2, “Composition for preventing or treating dental erosion” (MEDA OTC AB, priority 2014, dated 2021).

For assay [1] the following is noted: 0.15% HF at pH 2.58, 5 minutes at 37° C.; then 2% citric acid 15 minutes at 37° C.
Excerpt: A low vacuum scanning electron microscope, JEOL JSM 6610 LV, was used for studying surfaces.
SEM pictures were taken with 5000 times magnification (SEM×5000).
A human ex vivo tooth (premolar) was received from a dentist practice. The tooth was stored in Ringer solution and kept in refrigerator.
The effect of the HF treatment on HA surfaces was verified using an ex vivo human premolar tooth. The tooth had been split into two halves before the experiment (tooth 1:1 and tooth 1:2). The two tooth halves were rinsed with distilled water. One tooth half was placed in a 50 ml plastic bottle containing 2% citric acid and then allowed to incubate at 37° C. for 15 minutes under gentle agitation. The tooth was then rinsed with distilled water for a few minutes and then put on tissue paper to dry. […] The tooth half was rinsed with distilled water and then immersed in 2% citric acid and then allowed to incubate at 37° C. for 15 minutes under gentle agitation. The tooth was then rinsed with distilled water and left to dry on tissue paper for a few minutes.
For assay [2] the following is noted: 0.2% HF solution, pH 2.0, ~0.1 mol/l F; sound enamel; cited from earlier work.

In the case of `F` [HF, hydrogen fluoride], the “SEM: protection of enamel from etching” value in assay [1] was “clearly protected from etching”. Also, in assay [2], the “duration of protective effect against citric acid attack” value is recorded as “at least 1 week”.
